Test: xn = mol fraction of the nth substance listed
Settings: Liquid, Vibrating tube method

COC(=O)OC [dimethyl carbonate] + CCO
mass density [kg/m3]
Settings | 100 kPa | 5000 kPa | 10000 kPa | 15000 kPa | 20000 kPa | 25000 kPa | 30000 kPa | 35000 kPa | 40000 kPa
288.15 K, x1 = 0.0252 | 804.2 | 808 | 812.06 | 815.89 | 819.61 | 822.92 | 826.21 | 829.16 | 832.33
288.15 K, x1 = 0.0506 | 813.67 | 817.57 | 821.64 | 825.53 | 829.25 | 832.61 | 835.95 | 838.9 | 842.19
288.15 K, x1 = 0.0757 | 823.01 | 826.96 | 831.04 | 834.98 | 838.69 | 842.06 | 845.41 | 848.42 | 851.7
288.15 K, x1 = 0.1003 | 831.96 | 835.91 | 839.99 | 843.94 | 847.7 | 851.08 | 854.48 | 857.54 | 860.78
288.15 K, x1 = 0.1508 | 849.93 | 853.94 | 858.08 | 862.04 | 865.84 | 869.28 | 872.69 | 875.76 | 879.06
288.15 K, x1 = 0.2 | 866.84 | 870.91 | 875.1 | 879.08 | 882.88 | 886.33 | 889.8 | 892.93 | 896.24
288.15 K, x1 = 0.2547 | 885.11 | 889.19 | 893.38 | 897.43 | 901.27 | 904.73 | 908.21 | 911.35 | 914.67
288.15 K, x1 = 0.3002 | 899.9 | 903.99 | 908.19 | 912.25 | 916.09 | 919.56 | 923.05 | 926.24 | 929.57
288.15 K, x1 = 0.3498 | 915.51 | 919.65 | 923.86 | 927.88 | 931.71 | 935.24 | 938.74 | 941.95 | 945.28
288.15 K, x1 = 0.4 | 930.78 | 934.94 | 939.15 | 943.23 | 947.06 | 950.6 | 954.16 | 957.37 | 960.71
288.15 K, x1 = 0.449 | 945.14 | 949.35 | 953.57 | 957.66 | 961.48 | 965.03 | 968.6 | 971.87 | 975.22
288.15 K, x1 = 0.4996 | 959.51 | 963.73 | 967.96 | 972.06 | 975.93 | 979.49 | 983.06 | 986.34 | 989.7
288.15 K, x1 = 0.5507 | 973.56 | 977.78 | 982.01 | 986.13 | 989.99 | 993.56 | 997.14 | 1000.43 | 1003.8
288.15 K, x1 = 0.6005 | 986.73 | 990.95 | 995.19 | 999.32 | 1003.17 | 1006.8 | 1010.39 | 1013.69 | 1017.06
288.15 K, x1 = 0.6455 | 998.17 | 1002.45 | 1006.64 | 1010.83 | 1014.68 | 1018.32 | 1021.92 | 1025.22 | 1028.6
288.15 K, x1 = 0.6931 | 1009.92 | 1014.21 | 1018.41 | 1022.55 | 1026.4 | 1030.05 | 1033.65 | 1037.01 | 1040.4
288.15 K, x1 = 0.7502 | 1023.43 | 1027.72 | 1031.92 | 1036.08 | 1039.92 | 1043.58 | 1047.24 | 1050.61 | 1054
288.15 K, x1 = 0.8009 | 1035 | 1039.3 | 1043.51 | 1047.68 | 1051.52 | 1055.18 | 1058.85 | 1062.22 | 1065.62
288.15 K, x1 = 0.8505 | 1046 | 1050.3 | 1054.51 | 1058.68 | 1062.52 | 1066.19 | 1069.82 | 1073.25 | 1076.6
288.15 K, x1 = 0.9008 | 1056.7 | 1061.01 | 1065.22 | 1069.4 | 1073.24 | 1076.92 | 1080.55 | 1083.98 | 1087.34
288.15 K, x1 = 0.9255 | 1061.81 | 1066.14 | 1070.35 | 1074.54 | 1078.38 | 1082.06 | 1085.69 | 1089.13 | 1092.49
288.15 K, x1 = 0.9477 | 1066.36 | 1070.68 | 1074.89 | 1079.08 | 1082.92 | 1086.6 | 1090.23 | 1093.68 | 1097.04
288.15 K, x1 = 0.9735 | 1071.55 | 1075.89 | 1080.08 | 1084.28 | 1088.11 | 1091.79 | 1095.43 | 1098.88 | 1102.23
288.15 K, x1 = 1 | 1076.83 | 1081.15 | 1085.32 | 1089.52 | 1093.35 | 1096.99 | 1100.63 | 1104.08 | 1107.4
293.15 K, x1 = 0.0252 | 799.52 | 803.53 | 807.63 | – | – | – | – | – | –
293.15 K, x1 = 0.0506 | 808.93 | 813.04 | 817.2 | – | – | – | – | – | –
293.15 K, x1 = 0.0757 | 818.21 | 822.32 | 826.48 | – | – | – | – | – | –
293.15 K, x1 = 0.1003 | 827.05 | 831.21 | 835.37 | – | – | – | – | – | –
293.15 K, x1 = 0.1508 | 844.9 | 849.11 | 853.32 | – | – | – | – | – | –
293.15 K, x1 = 0.2 | 861.69 | 865.96 | 870.22 | – | – | – | – | – | –
293.15 K, x1 = 0.2547 | 879.83 | 884.11 | – | – | – | – | – | – | –
293.15 K, x1 = 0.3002 | 894.46 | 898.79 | – | – | – | – | – | – | –
293.15 K, x1 = 0.3498 | 909.95 | 914.32 | – | – | – | – | – | – | –
293.15 K, x1 = 0.4 | 925.11 | 929.49 | – | – | – | – | – | – | –
293.15 K, x1 = 0.449 | 939.35 | 943.78 | – | – | – | – | – | – | –
293.15 K, x1 = 0.4996 | 953.6 | 958.04 | – | – | – | – | – | – | –
293.15 K, x1 = 0.5507 | 967.53 | 971.96 | – | – | – | – | – | – | –
293.15 K, x1 = 0.6005 | 980.58 | 985.07 | – | – | – | – | – | – | –
293.15 K, x1 = 0.6455 | 991.96 | 996.45 | – | – | – | – | – | – | –
293.15 K, x1 = 0.6931 | 1003.6 | 1008.14 | – | – | – | – | – | – | –
293.15 K, x1 = 0.7502 | 1017.03 | 1021.58 | – | – | – | – | – | – | –
293.15 K, x1 = 0.8009 | 1028.54 | 1033.09 | – | – | – | – | – | – | –
293.15 K, x1 = 0.8505 | 1039.42 | 1043.97 | – | – | – | – | – | – | –
293.15 K, x1 = 0.9008 | 1050.05 | 1054.61 | – | – | – | – | – | – | –
293.15 K, x1 = 0.9255 | 1055.15 | 1059.71 | – | – | – | – | – | – | –
293.15 K, x1 = 0.9477 | 1059.65 | 1064.21 | – | – | – | – | – | – | –
293.15 K, x1 = 0.9735 | 1064.83 | 1069.39 | – | – | – | – | – | – | –
293.15 K, x1 = 1 | 1070.06 | 1074.62 | – | – | – | – | – | – | –

— the NIST ThermoML archive (doi:10.1016/j.jct.2019.02.011)
